From patent publication US20020058683A1, “Oral combination of lufenuron and nitenpyram against fleas” (priority 1998, published 2002)

Columns and labels:
[1] = system: fleas present on the cats; settings: cited from earlier work
fleas = settings: in vitro test, cited from earlier work
[2] = system: Cat flea Ctenocephalides felis; test: Example B1: activity against fleas on dogs in a contaminated environment, oral tablets; format: in vivo
Text: Comparison Between the Activity of Lufenuron Alone and the Combination of Nitenpyran and Lufenuron Against Dog Fleas in a Contaminated Environment Corresponding to Actual Conditions.
In the study, conditions existing in the household were simulated. To this end, 4 isolated and clinically clean rooms were used. They contained a sleeping area laid out with straw and a small run to the outside. The rooms were subjected to natural light conditions. […] Subsequently, each group of dogs underwent different treatment.
Control group 1 was given no active ingredient, but only a placebo and served as the reference group. Group 2 was given lufenuron in a monthly dosage in accordance with the instructions on the packet and once a week was given a placebo. Group 3 was given lufenuron in a monthly dosage in accordance with the instructions on the packet, and once a week was additionally given nitenpyram for a period of 6 weeks. Group 4 was given lufenuron in a monthly dosage in accordance with the instructions on the packet, and twice a week was additionally given nitenpyram for a period of 6 weeks.
In all four groups, the flea population was determined by counting them twice weekly before the first treatment and once weekly during treatment.
The activity of the test substances was determined under simulated household conditions in accordance with the following formula: [formula]

SMILES	activity against the fleas present on the cats ([1]; 6 hours after oral administration to cats) [%]	activity against fleas ([1]; cats, oral, on the second day after renewed infestation) [%]	activity (fleas; after 24 hours) [%]	time to first, substantial activity (fleas; after feeding contaminated blood to fleas) [min]	time within which all the fleas except one died ([2]; after the first administration of nitenpyram) [days]	Activity (% relative to control) ([2]; days 0-28 after first treatment, monthly lufenuron only (Group 2)) [%]	Activity (% relative to control) ([2]; days 29-56, monthly lufenuron only (Group 2)) [%]	Activity (% relative to control) ([2]; days 57-84, monthly lufenuron only (Group 2)) [%]	Activity (% relative to control) ([2]; days 85-112, monthly lufenuron only (Group 2)) [%]	time until activity achieved a satisfactory level for practical usage ([2]; group 2, treated solely with lufenuron)
CCN(Cc1ccc(Cl)nc1)/C(=C/[N+](=O)[O-])NC [nitenpyram, (E)-N-(6-chloro-pyridin-3-ylmethyl)-N-ethyl-N′-methyl-2-nitrovinylidenediamine]	60	55	100	30	16 to 24					
O=C(NC(=O)c1c(F)cccc1F)Nc1cc(Cl)c(OC(F)(F)C(F)C(F)(F)F)cc1Cl (racemic) [lufenuron, (R,S)-1-[2,5-dichloro-4-(1,1,2,2,3,3,3-hexafluoropropoxy)-phenyl]-3-(2,6-difluorobenzoyl)urea]						25.4	78.6	72.1	94.3	ca. 84 days
